Columns and labels:
Format in all cases: cell-based
[1] = system: Human anagen hair follicles; assay: Growth (elongation) of isolated human hair follicles in organ culture; conditions: for Effect on hair growth compared to other MAOI (in words): comparative experiment, Table 4
Method: Human anagen hair follicles were isolated from scalp skin and transferred for cultivation in sterile 24-well plates using a modified Williams' Medium E. Cultivation took place for nine days, while the experimental treatment of the follicles started 24 hours after the beginning of cultivation.
Hair follicles taken from a single donor were selected for the experiments after 18 h of cultivation Only follicles showing a good vital stage and a growth of not less than 0.2 mm were considered suitable to be maintained in culture. 4 groups comprising 9 follicles were prepared, plated at the density of three hair follicles/plate. […] The growth of the hair follicles was studied by microphotography and subsequently determined by image analysis. All hair follicles were photographed every two days.

[2] = system: Human anagen hair follicles; assay: as above; conditions: Table 1
[3] = system: Human anagen hair follicles; assay: Number of proliferative (Ki-67) and apoptotic (Apoptag) cells in the dermopapilla of hair follicles; conditions: for Number of cells in apoptotic state ± standard error / Number of cells in proliferative state ± standard error: after three days of cultivation, % of total cells in dermopapilla
Method: After three days of cultivation, samples were taken in order to determine the relative number of cells being in the proliferative or apoptotic state. The cells in apoptotic state were determined using an Apoptag Fluorescein In-situ Apoptosis Detection Kit (Chemicon International cod. S7110), while those in the proliferative state were marked with the antibody Ki-67 (monoclonal mouse anti-human Ki-67, clone MIB1, Dako Cytomation cod. M7240). The total number of cells in the dermopapilla was analysed by marking their nuclei by means of DAPI (4′,6-diamidino-2-phenylindol dihydrochloride). The percentage of cells in the proliferative or apoptotic state compared to the total number of cells was determined again by image analysis.

[4] = system: Human anagen hair follicles; assay: Histological analysis of hair follicles (anagen/catagen phase) after 9 days of cultivation; conditions: for Hair follicles in anagen phase / Hair follicles in catagen phase: after 9 days of cultivation
From the text: Subsequently, the hair follicles were subjected to a histological analysis by colouring with haematossilin and eosin in order to verify the morphological state of the dermopapilla.

[5] = 0.01 mM, day 1 of cultivation, Table 4 comparative experiment
[6] = 0.01 mM, day 3 of cultivation, Table 4 comparative experiment
[7] = 0.01 mM, day 5 of cultivation, Table 4 comparative experiment
[8] = 0.01 mM, day 7 of cultivation, Table 4 comparative experiment
[9] = 0.01 mM, day 9 of cultivation, Table 4 comparative experiment
[10] = 0.1 mM, day 1 of cultivation, Table 4 comparative experiment
[11] = 0.1 mM, day 3 of cultivation, Table 4 comparative experiment
[12] = 0.1 mM, day 5 of cultivation, Table 4 comparative experiment
[13] = 0.1 mM, day 7 of cultivation, Table 4 comparative experiment
[14] = 0.1 mM, day 9 of cultivation, Table 4 comparative experiment

C#CCN(C)[C@@H](C)Cc1ccccc1 [S-Selegiline]
Growth of hair follicles - elongation ± standard error [1, 5]: 0 mm
Growth of hair follicles - elongation ± standard error [1, 6]: 0.33 ± 0.02 mm
Growth of hair follicles - elongation ± standard error [1, 7]: 0.49 ± 0.02 mm
Growth of hair follicles - elongation ± standard error [1, 8]: 0.69 ± 0.03 mm
Growth of hair follicles - elongation ± standard error [1, 9]: 0.84 ± 0.06 mm
Growth of hair follicles - elongation ± standard error [1, 10]: 0 mm
Growth of hair follicles - elongation ± standard error [1, 11]: 0.35 ± 0.01 mm
Growth of hair follicles - elongation ± standard error [1, 12]: 0.55 ± 0.02 mm
Growth of hair follicles - elongation ± standard error [1, 13]: 0.70 ± 0.03 mm
Growth of hair follicles - elongation ± standard error [1, 14]: 0.75 ± 0.06 mm

C#CCN(C)CCCOc1ccc(Cl)cc1Cl [Chlorgyline]
Growth of hair follicles - elongation ± standard error [1, 5]: 0 mm
Growth of hair follicles - elongation ± standard error [1, 6]: 0.35 ± 0.02 mm
Growth of hair follicles - elongation ± standard error [1, 7]: 0.49 ± 0.02 mm
Growth of hair follicles - elongation ± standard error [1, 8]: 0.61 ± 0.04 mm
Growth of hair follicles - elongation ± standard error [1, 9]: 0.72 ± 0.07 mm
Growth of hair follicles - elongation ± standard error [1, 10]: 0 mm
Growth of hair follicles - elongation ± standard error [1, 11]: 0.33 ± 0.02 mm
Growth of hair follicles - elongation ± standard error [1, 12]: 0.55 ± 0.04 mm
Growth of hair follicles - elongation ± standard error [1, 13]: 0.67 ± 0.05 mm
Growth of hair follicles - elongation ± standard error [1, 14]: 0.79 ± 0.09 mm
Effect on hair growth compared to other MAOI (in words) [1]: did not exert any effect on hair growth

Pargyline
Growth of hair follicles - elongation ± standard error ([2]; 0.01 mM, day 1 of cultivation): 0 mm
Growth of hair follicles - elongation ± standard error ([2]; 0.1 mM, day 9 of cultivation): 1.60 ± 0.19 mm
Growth of hair follicles - elongation ± standard error ([2]; 0.5 mM, day 1 of cultivation): 0 mm
Number of cells in apoptotic state ± standard error ([3]; 0.01 mM): 0.93% ± 0.37
Number of cells in proliferative state ± standard error ([3]; 0.01 mM): 1.67% ± 0.4
Number of cells in apoptotic state ± standard error ([3]; 0.1 mM): 0.95% ± 0.08
Number of cells in proliferative state ± standard error ([3]; 0.1 mM): 2.89% ± 0.99
Effect on number of apoptotic cells (in words) ([3]; versus control): only a marginal effect in increasing the number of apoptotic cells
Effect on number of cells in proliferative state (in words) ([3]; versus control): significantly increases the number of cells in an active, proliferative state
Growth of hair follicles - elongation ± standard error ([1]; 0.01 mM, day 3 of cultivation, Table 1): 0.51 ± 0.03 mm
Growth of hair follicles - elongation ± standard error ([1]; 0.01 mM, day 5 of cultivation, Table 1): 0.80 ± 0.07 mm
Growth of hair follicles - elongation ± standard error ([1]; 0.01 mM, day 9 of cultivation, Table 1): 1.47 ± 0.15 mm
Growth of hair follicles - elongation ± standard error ([1]; 0.1 mM, day 1 of cultivation, Table 1): 0 mm
Growth of hair follicles - elongation ± standard error [1, 10]: 0 mm
Growth of hair follicles - elongation ± standard error ([1]; 0.1 mM, day 3 of cultivation, Table 1): 0.55 ± 0.04 mm
Growth of hair follicles - elongation ± standard error [1, 11]: 0.56 ± 0.02 mm
Growth of hair follicles - elongation ± standard error ([1]; 0.1 mM, day 5 of cultivation, Table 1): 0.91 ± 0.12 mm
Growth of hair follicles - elongation ± standard error [1, 12]: 0.78 ± 0.04 mm
Growth of hair follicles - elongation ± standard error ([1]; 0.1 mM, day 7 of cultivation, Table 1): 1.19 ± 0.17 mm
Growth of hair follicles - elongation ± standard error [1, 14]: 1.22 ± 0.08 mm
Growth of hair follicles - elongation ± standard error ([1]; 0.5 mM, day 3 of cultivation, Table 1): 0.55 ± 0.05 mm
Growth of hair follicles - elongation ± standard error ([1]; 0.5 mM, day 5 of cultivation, Table 1): 0.81 ± 0.11 mm
Growth of hair follicles - elongation ± standard error ([1]; 0.5 mM, day 9 of cultivation, Table 1): 1.17 ± 0.19 mm
Effect on growth of the hair follicles (in words) ([1]; 0.01 to 0.5 mM versus control, Table 1): significant increase in growth of the hair follicles
Effect on hair growth compared to other MAOI (in words) [1]: the only active species
Hair follicles in anagen phase ([4]; 0.01 mM): 78%
Hair follicles in catagen phase ([4]; 0.01 mM): 22%
Hair follicles in anagen phase ([4]; 0.1 mM): 67%
Hair follicles in catagen phase ([4]; 0.1 mM): 33%
Hair follicles in anagen phase ([4]; 0.5 mM): 56%
Hair follicles in catagen phase ([4]; 0.5 mM): 44%
Effect on decline in the catagen phase (in words) ([4]; 0.01 to 0.5 mM versus control): significantly delayed the decline in the catagen phase

C#CCN(C)[C@H](C)Cc1ccccc1 [R-Selegiline]
Growth of hair follicles - elongation ± standard error [1, 5]: 0 mm
Growth of hair follicles - elongation ± standard error [1, 6]: 0.35 ± 0.02 mm
Growth of hair follicles - elongation ± standard error [1, 7]: 0.52 ± 0.03 mm
Growth of hair follicles - elongation ± standard error [1, 8]: 0.62 ± 0.05 mm
Growth of hair follicles - elongation ± standard error [1, 9]: 0.80 ± 0.06 mm
Growth of hair follicles - elongation ± standard error [1, 10]: 0 mm
Growth of hair follicles - elongation ± standard error [1, 11]: 0.34 ± 0.02 mm
Growth of hair follicles - elongation ± standard error [1, 12]: 0.53 ± 0.04 mm
Growth of hair follicles - elongation ± standard error [1, 13]: 0.65 ± 0.06 mm
Growth of hair follicles - elongation ± standard error [1, 14]: 0.82 ± 0.12 mm

From patent publication US8741961B2 (Cutech S.r.l., priority 2007, dated 2014)
